Read-outs that look alike come from different tables or passages of the source.
How the values were obtained:
Type in all cases: cell-based
[1] = system: K-562; assay: SRB colorimetric cell growth inhibition assay, K-562; conditions: for GI50: GI=growth inhibition, read-out: GI50 K-562
In short: (§1)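 Growth inhibition (GI), cytostatic total growth inhibition (TGI) and cytotoxic cell-kill (LC) parameters were calculated from SRB-stained cultures held under constant compound exposure, triplicates averaged.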

[2] = system: A-549; assay: SRB colorimetric cell growth inhibition assay, A-549; conditions: for GI50: GI=growth inhibition, read-out: GI50 A-549
In short: as §1

[3] = system: SK-MEL-28; assay: SRB colorimetric cell growth inhibition assay, SK-MEL-28; conditions: for GI50: GI=growth inhibition, read-out: GI50 MEL-28
In short: as §1

[4] = system: HT-29; assay: SRB colorimetric cell growth inhibition assay, HT-29; conditions: for GI50: GI=growth inhibition, read-out: GI50 HT-29
In short: as §1

[5] = system: LoVo; assay: SRB colorimetric cell growth inhibition assay, LoVo; conditions: for GI50: GI=growth inhibition, read-out: GI50 LOVO
In short: as §1

[6] = system: LoVo-Dox; assay: SRB colorimetric cell growth inhibition assay, LoVo-Dox (MDR); conditions: for GI50: GI=growth inhibition, read-out: GI50 LOVO-DOX
In short: as §1

[7] = system: DU-145; assay: SRB colorimetric cell growth inhibition assay, DU-145; conditions: for GI50: GI=growth inhibition, read-out: GI50 DU-145
In short: as §1

[8] = system: SK-BR-3; assay: SRB colorimetric cell growth inhibition assay, SK-BR-3; conditions: for GI50: GI=growth inhibition, read-out: GI50 SK-BR-3
In short: as §1

[9] = system: IGROV; assay: SRB colorimetric cell growth inhibition assay, IGROV; conditions: IGROV; for GI50: GI=growth inhibition, read-out: GI50 IGROV
In short: as §1

[10] = system: IGROV-ET; assay: SRB colorimetric cell growth inhibition assay, IGROV-ET (ET-743 resistant); conditions: for GI50: GI=growth inhibition, read-out: GI50 IGROV-ET
In short: as §1

[11] = system: PANC-1; assay: SRB colorimetric cell growth inhibition assay, PANC-1; conditions: for GI50: GI=growth inhibition, read-out: GI50 PANC-1
In short: as §1

[12] = system: SKOV-3; assay: SRB colorimetric cell growth inhibition assay, SKOV-3; conditions: Homo sapiens
Text: Inhibition of Cell Growth by Colorimetric Assay.
A colorimetric type of assay, using sulforhodamine B (SRB) reaction has been adapted for a quantitative measurement of cell growth and viability (following the technique described by P. A. Skehan, et al., J. Natl. Cancer Inst. 1990, 82, 1107-1112).
This form of assay employs 96 well cell culture microplates of 9 mm diameter (T. Mosmann et al., J. of Immunological Methods 1983, 65, 55-63; G. T. Faircloth et al., J. of Tissue and Culture Methods 1988, 11, 201-205).
Most of the cell lines are obtained from American Type Culture Collection (ATCC) derived from different human cancer types.
The values for mean +/− SD of data from triplicate wells are calculated. Some parameters for cellular responses can be calculated: GI=growth inhibition, TGI=total growth inhibition (cytostatic effect) and LC=cell killing (cytotoxic effect).

[13] = system: LNCaP; assay: SRB colorimetric cell growth inhibition assay, LNCaP; conditions: LN-caP
In short: as §1

[14] = system: HeLa; assay: SRB colorimetric cell growth inhibition assay, HeLa; conditions: HELA
In short: as §1

[15] = system: HeLa-APL; assay: SRB colorimetric cell growth inhibition assay, HeLa-APL (aplidine resistant); conditions: HELA-APL
In short: as §1

[16] = total growth inhibition (cytostatic effect)

Compound `COc1cc(-c2c3c4cc(OC)c(OC(=O)[C@H](N)C(C)C)cc4oc(=O)c3n3ccc4c(OC(=O)[C@H](N)C(C)C)c(OC)c(OC)cc4c23)ccc1OC(=O)[C@H](N)C(C)C` [Compound 43] has a GI50 ([1]; Homo sapiens, K562, K-562) of 118 nM, an IC (TGI) ([1]; Homo sapiens, K562, K-562, TGI=total growth inhibition (cytostatic effect), read-out: TGI K-562) of 0.565 µM and a CC50 ([1]; Homo sapiens, K562, read-out: LC50 K-562, K-562, LC=cell killing (cytotoxic effect)) of 12.1 µM. The GI50 ([2]; Homo sapiens, A549, A-549) was 1900 nM, the IC (TGI) ([2]; Homo sapiens, A549, A-549, TGI=total growth inhibition (cytostatic effect), read-out: TGI A-549) was 12.1 µM and the CC50 ([2]; Homo sapiens, A549, read-out: LC50 A-549, A-549, LC=cell killing (cytotoxic effect)) was 12.1 µM. The GI50 ([3]; Homo sapiens, SK-MEL-28, MEL-28) was 498 nM, the CC50 ([3]; Homo sapiens, SK-MEL-28, read-out: LC50 MEL-28, MEL-28, LC=cell killing (cytotoxic effect)) was 12.1 µM and the IC (TGI) ([3]; Homo sapiens, SK-MEL-28, MEL-28, TGI=total growth inhibition (cytostatic effect), read-out: TGI MEL-28) was 12.1 µM. For the same compound, the CC50 ([4]; Homo sapiens, HT-29, read-out: LC50 HT-29, HT-29, LC=cell killing (cytotoxic effect)) was 12.1 µM, the GI50 ([4]; Homo sapiens, HT-29) was 12.1 µM and the IC (TGI) ([4]; Homo sapiens, HT-29, TGI=total growth inhibition (cytostatic effect), read-out: TGI HT-29) was 12.1 µM. For the same compound, the CC50 ([5]; Homo sapiens, LoVo, read-out: LC50 LOVO, LOVO, LC=cell killing (cytotoxic effect)) was 12.1 µM, the GI50 ([5]; Homo sapiens, LoVo) was 635 nM and the IC (TGI) ([5]; Homo sapiens, LoVo, TGI=total growth inhibition (cytostatic effect), read-out: TGI LOVO) was 3.72 µM. The GI50 ([6]; Homo sapiens, LOVO-DOX) was 937 nM, the IC (TGI) ([6]; Homo sapiens, LOVO-DOX, TGI=total growth inhibition (cytostatic effect), read-out: TGI LOVO-DOX) was 3.14 µM and the CC50 ([6]; Homo sapiens, read-out: LC50 LOVO-DOX, LOVO-DOX, LC=cell killing (cytotoxic effect)) was 9.84 µM. For the same compound, the GI50 ([7]; Homo sapiens, DU-145, DU-145) was 57.4 nM, the IC (TGI) ([7]; Homo sapiens, DU-145, DU-145, TGI=total growth inhibition (cytostatic effect), read-out: TGI DU-145) was 0.301 µM and the CC50 ([7]; Homo sapiens, DU-145, read-out: LC50 DU-145, DU-145, LC=cell killing (cytotoxic effect)) was 12.1 µM. For the same compound, the GI50 ([8]; Homo sapiens, SK-BR-3, SK-BR-3) was 212 nM, the IC (TGI) ([8]; Homo sapiens, SK-BR-3, SK-BR-3, TGI=total growth inhibition (cytostatic effect), read-out: TGI SK-BR-3) was 1.1 µM and the CC50 ([8]; Homo sapiens, SK-BR-3, read-out: LC50 SK-BR-3, SK-BR-3, LC=cell killing (cytotoxic effect)) was 7.9 µM. For the same compound, the CC50 ([9]; Homo sapiens, read-out: LC50 IGROV, IGROV, LC=cell killing (cytotoxic effect)) was 8.94 µM, the GI50 ([9]; Homo sapiens) was 418 nM and the IC (TGI) ([9]; Homo sapiens, TGI=total growth inhibition (cytostatic effect), read-out: TGI IGROV) was 2.14 µM. It also gave a GI50 ([10]; Homo sapiens, IGROV-ET) of 98 nM, an IC (TGI) ([10]; Homo sapiens, IGROV-ET, TGI=total growth inhibition (cytostatic effect), read-out: TGI IGROV-ET) of 3.24 µM and a CC50 ([10]; Homo sapiens, read-out: LC50 IGROV-ET, IGROV-ET, LC=cell killing (cytotoxic effect)) of 12.1 µM. The GI50 ([11]; Homo sapiens, PANC-1, PANC-1) was 1490 nM, the IC (TGI) ([11]; Homo sapiens, PANC-1, PANC-1, TGI=total growth inhibition (cytostatic effect), read-out: TGI PANC-1) was 6.57 µM and the CC50 ([11]; Homo sapiens, PANC-1, read-out: LC50 PANC-1, PANC-1, LC=cell killing (cytotoxic effect)) was 12.1 µM. The GI50 ([12]; SK-OV-3, SKOV-3, GI=growth inhibition, read-out: GI50 SKOV-3) was 146 nM, the CC50 ([12]; SK-OV-3, read-out: LC50 SKOV-3) was 12.1 µM and the IC (TGI) ([12]; SK-OV-3, SKOV-3, TGI=total growth inhibition (cytostatic effect), read-out: TGI SKOV-3) was 1.14 µM.

For `COc1cc(-c2c3c4cc(OC)c(OC(=O)[C@H](C)N)cc4oc(=O)c3n3ccc4cc(O)c(OC)cc4c23)ccc1O.Cl` [Compound 240], the GI50 ([1]; K-562) was 124 nM, the CC50 ([1]; K-562, cell killing (cytotoxic effect), read-out: LC50 K-562) was 2.09 µM and the “TGI K-562” value ([1]; K-562, total growth inhibition (cytostatic effect)) was 4.50E−07 Molar. The GI50 ([2]; A-549) was 126 nM, the CC50 ([2]; A-549, cell killing (cytotoxic effect), read-out: LC50 A-549) was 1.51 µM and the “TGI A-549” value ([2]; A-549, total growth inhibition (cytostatic effect)) was 4.70E−07 Molar. For the same compound, the GI50 ([3]; MEL-28) was 99.7 nM, the CC50 ([3]; MEL-28, cell killing (cytotoxic effect), read-out: LC50 MEL-28) was 1.44 µM and the “TGI MEL-28” value ([3]; MEL-28, total growth inhibition (cytostatic effect)) was 3.81E−07 Molar. The GI50 ([4]; HT-29) was 1.64 µM, the CC50 ([4]; HT-29, cell killing (cytotoxic effect), read-out: LC50 HT-29) was 16.5 µM and the “TGI HT-29” value ([4]; HT-29, total growth inhibition (cytostatic effect)) was 1.59E−05 Molar. For the same compound, the GI50 ([5]; LOVO) was 170 nM, the CC50 ([5]; LOVO, cell killing (cytotoxic effect), read-out: LC50 LOVO) was 1.52 µM and the “TGI LOVO” value ([5]; LOVO, total growth inhibition (cytostatic effect)) was 5.09E−07 Molar. For the same compound, the GI50 ([6]; LOVO-DOX) was 461 nM, the CC50 ([6]; LOVO-DOX, cell killing (cytotoxic effect), read-out: LC50 LOVO-DOX) was 16.5 µM and the “TGI LOVO-DOX” value ([6]; LOVO-DOX, total growth inhibition (cytostatic effect)) was 1.15E−06 Molar. The GI50 ([7]; DU-145) was 60.6 nM, the CC50 ([7]; DU-145, cell killing (cytotoxic effect), read-out: LC50 DU-145) was 16.5 µM and the “TGI DU-145” value ([7]; DU-145, total growth inhibition (cytostatic effect)) was 1.34E−07 Molar. The GI50 ([13]; GI=growth inhibition, read-out: GI50 LN-caP) was 4.09 µM, the CC50 ([13]; cell killing (cytotoxic effect), read-out: LC50 LN-caP) was 16.5 µM and the “TGI LN-caP” value [13, 16] was 1.65E−05 Molar. The GI50 ([8]; SK-BR-3) was 59.3 nM, the CC50 ([8]; SK-BR-3, cell killing (cytotoxic effect), read-out: LC50 SK-BR-3) was 16.5 µM and the “TGI SK-BR-3” value ([8]; SK-BR-3, total growth inhibition (cytostatic effect)) was 3.43E−07 Molar. The GI50 [9] was 136 nM, the CC50 ([9]; cell killing (cytotoxic effect), read-out: LC50 IGROV) was 3.64 µM and the “TGI IGROV” value [9, 16] was 5.22E−07 Molar. The GI50 ([10]; IGROV-ET) was 82.4 nM, the CC50 ([10]; IGROV-ET, cell killing (cytotoxic effect), read-out: LC50 IGROV-ET) was 12.9 µM and the “TGI IGROV-ET” value ([10]; IGROV-ET, total growth inhibition (cytostatic effect)) was 3.66E−07 Molar. The GI50 ([14]; GI=growth inhibition, read-out: GI50 HELA) was 57.5 nM, the CC50 ([14]; cell killing (cytotoxic effect), read-out: LC50 HELA) was 1400 nM and the “TGI HELA” value [14, 16] was 1.49E−07 Molar. For the same compound, the GI50 ([15]; GI=growth inhibition, read-out: GI50 HELA-APL) was 341 nM, the CC50 ([15]; cell killing (cytotoxic effect), read-out: LC50 HELA-APL) was 7.61 µM and the “TGI HELA-APL” value [15, 16] was 1.40E−06 Molar. The GI50 ([11]; PANC-1) was 70.5 nM, the CC50 ([11]; PANC-1, cell killing (cytotoxic effect), read-out: LC50 PANC-1) was 8.86 µM and the “TGI PANC-1” value ([11]; PANC-1, total growth inhibition (cytostatic effect)) was 6.82E−07 Molar.
